Data reported in PMC8347512, “Synthesis and Biological Assessment of 4,1-Benzothiazepines with Neuroprotective Activity on the Ca^2+ Overload for the Treatment of Neurodegenerative Diseases and Stroke” (Molecules, 2021).
Where two headings read alike, the source gives them in different places.

Legend:
[1] = Solubility as observed during testing; assay type: physicochemical
SH-SY5Y cells [2] = experiment: Per se toxicity, MTT reduction, SH-SY5Y cells; assay type: cell-based
Method: (§1) The neuroblastoma SH-SY5Y cell line was obtained from the American Type Culture Collection (ATCC-CRL-2266), maintained and cultured in a 1:1 mixture of MEM and F12 media with 10% of fetal bovine serum (FBS), according to procedures previously described. For fluorescence-based [Ca^2+]c measurements, SH-SY5Y cells were seeded in clear-bottomed, 96-well black plates at a density of 40,000 cells/well. For viability assays, SH-SY5Y cells were seeded in 48-well plates at a density of 70,000 cells/well following the procedure recently reported. Rat cortical embryonic neurons were prepared from 19-day-old embryos directly seeded in the plate well treated with poly-D-lysine in neurobasal medium (Gibco 21103, Madrid, Spain) supplemented with 1% of L-glutamine (Sigma, G6392), 0.5% of penicillin/streptomycin and 0.1% of gentamincine. In fluorescence-based [Ca^2+]c measurement, neurons were seed at clear-bottomed, 96-well black plates at a density of 30,000 cells/well. For viability assays, the rat cortical neurons were also seeded in 48-well plates at a density of 40,000 cells/well. All the biological assays were conducted under sterile conditions.
The per se toxicity of the new synthetized compounds was assessed in both cell cultures by the method of MTT reduction. […] The viability of cultures was measured 20 h later, following a procedure recently described. […]

SH-SY5Y cells [3] = experiment: Neuroprotection against rotenone/oligomycin A (R/O), MTT, SH-SY5Y cells; assay type: cell-based; conditions: R/O 30/10 μM, compounds 10 μM
Method: as §1
(§2) The effect of compounds on the SH-SY5Y cells and rat cortical neurons viability compromised of different toxics was also evaluated by method of MTT reduction. Twenty-four hours after seeding, SH-SY5Y cells were preincubated with compounds at the concentration of 10 μM for 24 h. Afterwards, MEM/F12 medium was replaced by one fresh with 1% FBS, compounds at the same concentration, and rotenone/oligomycin A administered to media at the concentration of 30/10 μM, respectively. The cultures’ viability was measured 20 h later, following the MTT procedure recently described. As reference neuroprotective compound, melatonin 10 nM was selected. In the case of the rat cortical neurons, 7 days after seeding in 48-well plates, neurons were preincubated adding the compounds at a final concentration of 10 μM for 24 h. Then, toxic stimuli of 50 µM of glutamate was added to the wells. After 20 h, cell viability was measured by the MTT procedure. Here, the reference protective compound used was memantine (30 nM).

NMDA receptors = experiment: Blockade of NMDA-evoked cytosolic Ca2+ elevation (Fluo-4/AM) in rat cortical neurons; assay type: cell-based; conditions: for IC50: rat cortical embryonic neurons, NMDA 10 μM, compounds 1 to 30 μM, read-out: IC50, NMDA-evoked [Ca2+]c elevation
Method: as §1
To assess the blocking effect of compounds on the VGCC, we used SH-SY5Y cells charged with the Ca^2+-sensitive fluorescent dye Fluo-4/AM at 10 μM in Krebs-HEPES buffer, following a protocol recently described. Compounds were incubated at the desired concentrations (1, 3, 10, and 30 μM). The Ca^2+ entry was favored by addition of K^+ 70 mM to the extracellular medium. […] Rat cortical neurons were charged with Fluo-4/AM at 3 μM in Krebs-HEPES buffer and compounds incubated at same concentrations than before. To stimulate Ca^2+ entry through the NMDA-sensitive glutamate receptors, NMDA was applied at 10 μM. In both cases, fluorescence oscillations as result of the [Ca^2+]c increases were real-time monitored in a multi-well fluorescence plate reader (FluoStar Optima, BMG, Germany), with excitation and emission wavelengths of 485 and 520 nm, respectively. Data were calculated as fluorescence increase (ΔF), according to the formula: ΔF=Fx−Fo /Fmax−Fmin where Fx is the maximum fluorescence obtained after Ca^2+ entry stimulation, F0 is the averaged fluorescence before, Fmax is the maximum fluorescence of the well obtained by treating cells with 5% Triton X-100, and the Fmin is the minimum fluorescence of well obtained by adding MnCl2 1 M to the previously Triton-lysed cells. The ΔF data were normalized respect to the control (ΔFc).

[4] = Blood-brain barrier permeation assay (PAMPA), porcine brain lipid; assay type: in vitro ADME; conditions: pH 7.4, threshold value of 40 nm/s, read-out: Pe, in vitro permeability (PAMPA-BBB)
Method: The parallel artificial membrane permeation assay (PAMPA) was used to predict the capacity of compounds to cross the blood–brain barrier (BBB) by passive diffusion, in a similar manner as previously described. Compounds were dissolved in 10 mM phosphate-buffered saline (PBS) buffer (pH 7.4) to the concentration of 100 µM. The filter membrane of the donor 96-well plate (Multiscreen IP sterile clear plate PDVF membrane, pore size […]) was impregnated with 4 µL of porcine brain lipid (PBL) (Avanti Polar Lipids, Inc., Alabaster, AL, USA) in dodecane (20 mg/mL), and after 5 min, 180 µL of each compound solution was added. The acceptor 96-well plate (Multiscreen, Millipore Corp. Burlington, MA, USA) was filled with 180 µL of PBS and 1% of DMSO. Finally, the donor filter plate was carefully put on the acceptor plate to form a “sandwich”, which was left undisturbed for 4 h at rt. After incubation, an UV plate reader determined the concentration of compounds in both acceptor and donor wells (150 µL/well) as the maximum absorption wavelength of each compound. Concentration of the compounds in the donor and acceptor well, and equilibrium concentration were calculated from the standard curve and expressed as the permeability (Pe), according to the following formula: logPe=logC×−ln1−drugacceptor/drugequilibrium whereC=Vdonor×Vaceptor/Vdonor+Vaceptor×Area×Time)
Results are expressed as mean ± SEM of three different experiments in duplicate.

rat cortical neurons = experiment: Neuroprotection against glutamate 50 μM, MTT, rat cortical neurons; assay type: cell-based; conditions: compounds 10 μM
Method: as §1, §2

VGCC = experiment: Blockade of 70 mM K+-evoked cytosolic Ca2+ elevation (Fluo-4/AM) in SH-SY5Y cells; assay type: cell-based
Method: as §1
To assess the blocking effect of compounds on the VGCC, we used SH-SY5Y cells charged with the Ca^2+-sensitive fluorescent dye Fluo-4/AM at 10 μM in Krebs-HEPES buffer, following a protocol recently described. Compounds were incubated at the desired concentrations (1, 3, 10, and 30 μM). The Ca^2+ entry was favored by addition of K^+ 70 mM to the extracellular medium. To evaluate the blocking effect of compounds on NMDA receptors, we have followed a protocol recently reported by our research group. Rat cortical neurons were charged with Fluo-4/AM at 3 μM in Krebs-HEPES buffer and compounds incubated at same concentrations than before. To stimulate Ca^2+ entry through the NMDA-sensitive glutamate receptors, NMDA was applied at 10 μM. In both cases, fluorescence oscillations as result of the [Ca^2+]c increases were real-time monitored in a multi-well fluorescence plate reader (FluoStar Optima, BMG, Germany), with excitation and emission wavelengths of 485 and 520 nm, respectively. Data were calculated as fluorescence increase (ΔF), according to the formula: ΔF=Fx−Fo /Fmax−Fmin where Fx is the maximum fluorescence obtained after Ca^2+ entry stimulation, F0 is the averaged fluorescence before, Fmax is the maximum fluorescence of the well obtained by treating cells with 5% Triton X-100, and the Fmin is the minimum fluorescence of well obtained by adding MnCl2 1 M to the previously Triton-lysed cells. The ΔF data were normalized respect to the control (ΔFc). Data are presented as percentage of blockade (100% ΔF) at the concentration of 10 μM, or as IC50, i.e., the concentration of compound capable of halving the ΔFc (%ΔF = 50).

CC(C)c1ccc(C2SCC(=O)Nc3ccc(Cl)cc32)cc1 (stereo not drawn) [compound 12, 7-Chloro-5-(4′-isopropylphenyl)-3,5-dihydro-4,1-benzothiazepin-2-(1H)-one]
Solubility (observation) [1]: some solubility problems were appreciated | Effect on cell viability of SH-SY5Y cells (per se toxicity) (SH-SY5Y cells [2]; compounds at 1, 3, 10 and 30 μM): did not produce a dramatic loss of cell viability | melting point: 240 to 243 °C

CC(C)c1cccc(C2SCC(=O)Nc3ccc(Cl)cc32)c1 (stereo not drawn) [compound 13, 7-Chloro-5-(3′-isopropylphenyl)-3,5-dihydro-4,1-benzothiazepin-2-(1H)-one]
Effect on cell viability of SH-SY5Y cells at 30 μM (SH-SY5Y cells [2]; 30 μM): remarkable cytotoxic profile | melting point: 218 to 220 °C

CC(C)c1ccccc1C1SCC(=O)Nc2ccc(N(C)C)cc21 (stereo not drawn) [compound 21, 7-Dimethylamino-5-(2′-isopropylphenyl)-3,5-dihydro-4,1-benzothiazepin-2-(1H)-one]
Protection against R/O-induced oxidative stress (in words) (SH-SY5Y cells [3]): clear trend to protect against oxidative stress | IC50 (NMDA receptors): 6.2 µM | Mitigation of the NMDA-elicited Ca2+ increase compared with memantine (NMDA receptors; rat cortical neurons, compounds 10 μM, memantine 10 μM): noticeable mitigation of the NMDA-elicited Ca^2+ increase, even higher than that exerted by the reference compound memantine | Papp at 4 h, 100 µM [4]: > 4 ×10⁻⁶ cm/s | Protection against glutamate-elicited neurotoxicity (in words) (rat cortical neurons): statistically significant dissipation of the glutamate-elicited neurotoxicity | Decrease of K+-evoked Ca2+ signaling compared with nifedipine (VGCC; compounds 10 μM, nifedipine 10 μM): in a similar manner or even better than the reference compound nifedipine | IC50 (VGCC; read-out: IC50, concentration halving the 70 mM K+-evoked Ca2+ elevation, compounds 1 to 30 μM, Fluo-4/AM): 5.4 µM | melting point: 108 to 112 °C

O=C1CSC(c2ccccc2)c2cnccc2N1 (stereo not drawn) [compound 38, 5-Phenyl-3,5-dihydropyrido[4,3-e][1,4]thiazepin-2-(1H)-one]
Protection against R/O-induced oxidative stress (in words) (SH-SY5Y cells [3]): neuroprotective profile against oxidative stress | IC50 (NMDA receptors): > 30 µM | Protection against glutamate-elicited neurotoxicity (in words) (rat cortical neurons): nicely recovered cell viability | IC50 (VGCC; compounds 1 to 30 μM, Fluo-4/AM, read-out: IC50, concentration halving the 70 mM K+-evoked Ca2+ elevation): 28.5 µM | melting point: 138 to 143 °C
